System: 926638-142-R-J1-PDC complex spheroid viability
Assay: Anticancer human tumor 926638-142-R-J1-PDC patient-derived endometrial carcinoma cell line growth inhibition [POLQ]
Conditions: for IC50: curve of first compound; for viability, T/C: stronger effect = lower value
Procedure: Multicellular complex tumor spheroid response to Polymerase (POL) inhibitors (novobiocin, ART-558, RP6685) in combination with a variety of drugs and investigational agents in selected tumor cell lines
The POL inhibitors (novobiocin, ART-558, and RP6685) were evaluated both individually and in combination with standard of care and investigational anticancer small molecules within a complex spheroid model of solid tumors. . Complex spheroids include a stromal component modeled by human endothelial cells (HUVEC) and fibroblasts modeled by human mesenchymal stem cells (MSCs). The concentration ranges selected for each drug and investigational agent were based upon clinically achievable concentrations if the clinical Cmax of the agent was known.
Compounds. The drugs and investigational agents: novobiocin (NSC847541), ART-558 (NSC835418), RP-6685 (NSC848927), peposertib (NSC802822), ceralasertib (NSC780249), elimusertib (NSC800525), camonsertib (NSC841442), AZD-1390 (NSC803789), olaparib (NSC753686), talazoparib (NSC767125), rucaparib (NSC756644), sotorasib (NSC818433), MRTX-1133 (NSC836407), SN-38 (NSC673596), topotecan (NSC609699), epotoside (NSC141540), doxorubicin (NSC123127), gemcitabine (NSC613327), 5-fluorouracil (NSC19893), paclitaxel (NSC125973), vemurafenib (NSC761431), MSA-2 (NSC828583), SN-011 (NSC837082), adavosertib (NSC754352), prexasertib (NSC758257), carboplatin (NSC241240) and oxaliplatin (NSC266046), were obtained from the National Cancer Institute (NCI) Developmental Therapeutics Program Chemical Repository (21). The FDA-approved anticancer drug set is available from the Developmental Therapeutics Program at https://dtp.cancer.gov/organization/dscb/obtaining/. […] The stock solutions were prepared in dimethyl sulfoxide (DMSO, Sigma-Aldrich, St. Louis, MO, cat. D2650), except for the platinum compounds which were prepared in saline (Quality Biological, Gaithersburg, MD, cat. 114-055-101), at 800-fold the tested concentration and stored at -70 degrees C prior to their use. All drugs and investigational agents were tested over a range starting from a high concentration at or near the clinical Cmax and decreasing in half-log increments. If the clinical Cmax for an agent had not been determined, the highest concentration tested was 10 microM, except for SN-38, which was tested at a high concentration of 1 microM.
Cell Culture. All cells were maintained in an incubator at 37 degrees C and 5% CO2 with 95% humidity. The PDC lines were cultured according to standard operating procedures established by the NCI PDMR (https://pdmr.cancer.gov). Table 3 of the manuscript, lists the cell lines along with the number of the three cell types plated to form the mct-spheroids and media for tumor cell growth. After thawing, all PDC lines, except 997537-175-T-J1-PDC and 415267-285-R-J2-PDC, were cultured in Matrigel-coated flasks prepared with a working solution of 1X Ham's F-12 nutrient mix, without supplementation (Thermo Fisher Scientific, cat. 11765054), 100 U/mL penicillin-streptomycin (Thermo Fisher Scientific, cat. 15140122), and 2.5% Matrigel (Corning Inc., Corning, NY, cat. 354248) for the first three passages. The two PDC lines 997537-175-T-J1-PDC and 415267-285-R-J2-PDC were cultured on uncoated flasks. The 857933-349-R-J2-PDC line was cultured in 6C/Colon 1B media containing advanced DMEM/F-12 (Thermo Fisher Scientific, cat. 12634028), 10 mM HEPES (Thermo Fisher Scientific, cat. 15630080), 1X GlutaMAX supplement (Thermo Fisher Scientific, cat. 35050061), 0.1 mg/mL primocin (InvivoGen, San Diego, CA, cat. ant-pm-2), 10% defined fetal bovine serum, heat inactivated (HyClone Laboratories Inc., Logan, UT, cat. SH30070.03HI), 50% L-WRN conditioned media (ATCC, cat. CRL-3276), 1.25 mM N-Acetyl-L-cysteine (Sigma-Aldrich, cat. A9165), 10 mM nicotinamide (Sigma-Aldrich, cat. N0636), 1X B-27 supplement (Thermo Fisher Scientific, cat. 17504044), 1X N-2 supplement (Thermo Fisher Scientific, cat. […]

[1] = second compound 0.0316 µM, first compound 0.0316 µM
[2] = second compound 0.0316 µM, first compound 0.1 µM
[3] = second compound 0.0316 µM, first compound 0.316 µM
[4] = second compound 0.0316 µM, first compound 1 µM
[5] = second compound 0.0316 µM, first compound 3.16 µM
[6] = second compound 0.0316 µM, first compound 10 µM
[7] = second compound 0.1 µM, first compound 0.0316 µM
[8] = second compound 0.1 µM, first compound 0.1 µM
[9] = second compound 0.1 µM, first compound 0.316 µM
[10] = second compound 0.1 µM, first compound 1 µM
[11] = second compound 0.1 µM, first compound 3.16 µM
[12] = second compound 0.1 µM, first compound 10 µM
[13] = second compound 0.316 µM, first compound 0.0316 µM
[14] = second compound 0.316 µM, first compound 0.1 µM
[15] = second compound 0.316 µM, first compound 0.316 µM
[16] = second compound 0.316 µM, first compound 1 µM
[17] = second compound 0.316 µM, first compound 3.16 µM
[18] = second compound 0.316 µM, first compound 10 µM
[19] = second compound 1 µM, first compound 0.0316 µM
[20] = second compound 1 µM, first compound 0.1 µM
[21] = second compound 1 µM, first compound 0.316 µM
[22] = second compound 1 µM, first compound 1 µM
[23] = second compound 1 µM, first compound 3.16 µM
[24] = second compound 1 µM, first compound 10 µM
[25] = second compound 3.16 µM, first compound 0.0316 µM
[26] = second compound 3.16 µM, first compound 0.1 µM
[27] = second compound 3.16 µM, first compound 0.316 µM
[28] = second compound 3.16 µM, first compound 1 µM
[29] = second compound 3.16 µM, first compound 3.16 µM
[30] = second compound 3.16 µM, first compound 10 µM
[31] = second compound 10 µM, first compound 0.0316 µM
[32] = second compound 10 µM, first compound 0.1 µM
[33] = second compound 10 µM, first compound 0.316 µM
[34] = second compound 10 µM, first compound 1 µM
[35] = second compound 10 µM, first compound 3.16 µM
[36] = second compound 10 µM, first compound 10 µM
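Further: spheroids exposed to drugs for one week before readout.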
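Wherever viability, T/C is given: percent viability relative to DMSO vehicle control wells set as 100%.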

## COc1ccc([C@@H](O)c2cc(-c3ncnc4cc(N5CCOCC5)ccc34)c(F)cc2Cl)nn1 + Nc1ccc(C#CCN(C(=O)Cc2ncc(C(F)(F)F)cc2C(F)(F)F)c2ccc(F)cc2)nn1
Second compound 0.0316 µM
  IC50: 0.631 µM
Second compound 0.1 µM
  IC50: 0.45 µM
Second compound 0.316 µM
  IC50: 0.572 µM
Second compound 1 µM
  IC50: 0.708 µM
Second compound 3.16 µM
  IC50: 0.628 µM
Second compound 10 µM
  IC50: 0.537 µM
[1]
  viability, T/C: 90.7%
[2]
  viability, T/C: 82%
[3]
  viability, T/C: 58.1%
[4]
  viability, T/C: 47.2%
[5]
  viability, T/C: 20.1%
[6]
  viability, T/C: 14.7%
[7]
  viability, T/C: 101%
[8]
  viability, T/C: 83.3%
[9]
  viability, T/C: 56.6%
[10]
  viability, T/C: 34%
[11]
  viability, T/C: 19.4%
[12]
  viability, T/C: 12.7%
[13]
  viability, T/C: 119%
[14]
  viability, T/C: 101%
[15]
  viability, T/C: 67.1%
[16]
  viability, T/C: 33.9%
[17]
  viability, T/C: 19.8%
[18]
  viability, T/C: 15%
[19]
  viability, T/C: 103%
[20]
  viability, T/C: 88.9%
[21]
  viability, T/C: 71.9%
[22]
  viability, T/C: 41.2%
[23]
  viability, T/C: 20%
[24]
  viability, T/C: 13.2%
[25]
  viability, T/C: 91.6%
[26]
  viability, T/C: 75.8%
[27]
  viability, T/C: 67%
[28]
  viability, T/C: 39.3%
[29]
  viability, T/C: 22.9%
[30]
  viability, T/C: 12.7%
[31]
  viability, T/C: 81.4%
[32]
  viability, T/C: 76.2%
[33]
  viability, T/C: 65.6%
[34]
  viability, T/C: 32%
[35]
  viability, T/C: 15%
[36]
  viability, T/C: 10.2%

## O=C(Nc1ccc(O)c(NS(=O)(=O)c2ccc(F)cc2)c1)c1ccc(-c2ccccc2)cc1 + Nc1ccc(C#CCN(C(=O)Cc2ncc(C(F)(F)F)cc2C(F)(F)F)c2ccc(F)cc2)nn1
Second compound 0.0316 µM
  IC50: > 10 µM
Second compound 0.1 µM
  IC50: > 10 µM
Second compound 0.316 µM
  IC50: > 10 µM
Second compound 1 µM
  IC50: > 10 µM
Second compound 3.16 µM
  IC50: > 10 µM
Second compound 10 µM
  IC50: > 10 µM
[1]
  viability, T/C: 106%
[2]
  viability, T/C: 101%
[3]
  viability, T/C: 80.8%
[4]
  viability, T/C: 110%
[5]
  viability, T/C: 95.7%
[6]
  viability, T/C: 82.8%
[7]
  viability, T/C: 105%
[8]
  viability, T/C: 103%
[9]
  viability, T/C: 107%
[10]
  viability, T/C: 108%
[11]
  viability, T/C: 96.4%
[12]
  viability, T/C: 81.3%
[13]
  viability, T/C: 114%
[14]
  viability, T/C: 102%
[15]
  viability, T/C: 99.5%
[16]
  viability, T/C: 116%
[17]
  viability, T/C: 109%
[18]
  viability, T/C: 81.1%
[19]
  viability, T/C: 98%
[20]
  viability, T/C: 106%
[21]
  viability, T/C: 103%
[22]
  viability, T/C: 105%
[23]
  viability, T/C: 105%
[24]
  viability, T/C: 71.9%
[25]
  viability, T/C: 100%
[26]
  viability, T/C: 82.4%
[27]
  viability, T/C: 96.1%
[28]
  viability, T/C: 100%
[29]
  viability, T/C: 106%
[30]
  viability, T/C: 67.6%
[31]
  viability, T/C: 92.2%
[32]
  viability, T/C: 92.8%
[33]
  viability, T/C: 89.5%
[34]
  viability, T/C: 104%
[35]
  viability, T/C: 104%
[36]
  viability, T/C: 72.5%

## O=C(c1cc(Cc2n[nH]c(=O)c3ccccc23)ccc1F)N1CCN(C(=O)C2CC2)CC1 + Nc1ccc(C#CCN(C(=O)Cc2ncc(C(F)(F)F)cc2C(F)(F)F)c2ccc(F)cc2)nn1
Second compound 0.0316 µM
  IC50: > 10 µM
Second compound 0.1 µM
  IC50: > 10 µM
Second compound 0.316 µM
  IC50: > 10 µM
Second compound 1 µM
  IC50: > 10 µM
Second compound 3.16 µM
  IC50: > 10 µM
Second compound 10 µM
  IC50: > 10 µM
[1]
  viability, T/C: 82.5%
[2]
  viability, T/C: 96.2%
[3]
  viability, T/C: 84.5%
[4]
  viability, T/C: 94.9%
[5]
  viability, T/C: 81.9%
[6]
  viability, T/C: 80.4%
[7]
  viability, T/C: 101%
[8]
  viability, T/C: 110%
[9]
  viability, T/C: 86.5%
[10]
  viability, T/C: 88.2%
[11]
  viability, T/C: 80.7%
[12]
  viability, T/C: 73.8%
[13]
  viability, T/C: 100%
[14]
  viability, T/C: 93.8%
[15]
  viability, T/C: 89.7%
[16]
  viability, T/C: 99%
[17]
  viability, T/C: 82.8%
[18]
  viability, T/C: 77.8%
[19]
  viability, T/C: 97.5%
[20]
  viability, T/C: 90.6%
[21]
  viability, T/C: 85%
[22]
  viability, T/C: 83.2%
[23]
  viability, T/C: 82%
[24]
  viability, T/C: 69.3%
[25]
  viability, T/C: 86.3%
[26]
  viability, T/C: 89.9%
[27]
  viability, T/C: 91.4%
[28]
  viability, T/C: 87.6%
[29]
  viability, T/C: 98.3%
[30]
  viability, T/C: 81.6%
[31]
  viability, T/C: 87.6%
[32]
  viability, T/C: 85.8%
[33]
  viability, T/C: 80.1%
[34]
  viability, T/C: 73.7%
[35]
  viability, T/C: 81.5%
[36]
  viability, T/C: 66.1%
